Experimental data: patent US20070219210A1, “Amidopyrazole Derivative” (Daiichi Pharmaceutical Co., LTD., priority 2003, published 2007)
pIC50: −log10 of the molar value.

Tests used:
[1] = tested on: collagen-induced platelet coagulation; assay: Inhibitory effect on collagen-induced platelet coagulation in platelet rich plasma; format: cell-based; settings: human platelet rich plasma, 37° C., coagulation induced with collagen; read-out: Inhibition of collagen-induced platelet coagulation, IC50
Description: Human blood was collected by using 1/10 volume of 3.13% sodium citrate as an anticoagulant, and the blood was centrifuged at 180 g for 10 minutes to separate platelet rich plasma (PRP), which was the upper layer. After collecting the upper layer PRP, the remaining lower layer was centrifuged at 1600 g for 10 minutes, and platelet poor plasma (PPP) in the upper layer was collected. 1 μl solution of the compound of the Examples was added to 200 μl of the PRP, and after allowing the sample to stand at 37° C. for 2 minutes, 2 μl of collagen was added in order to induce platelet coagulation. Platelet coagulation rate was measured with PAM-12C (SSR Engineering).

Cyclooxygenase-1 (COX-1) = biological target: T1, Cyclooxygenase-1 (COX-1) (Ovis aries, UniProt P05979); assay: COX Inhibitor Screening Assay Kit (Cayman), PGF2α by ELISA, COX-1; format: biochemical; settings: compound at 50 μm; relative to PGF2α produced without compound (100%)
T1 construct: purchased Cayman Chemical Company 560101
T1 sequence (P05979 25-600): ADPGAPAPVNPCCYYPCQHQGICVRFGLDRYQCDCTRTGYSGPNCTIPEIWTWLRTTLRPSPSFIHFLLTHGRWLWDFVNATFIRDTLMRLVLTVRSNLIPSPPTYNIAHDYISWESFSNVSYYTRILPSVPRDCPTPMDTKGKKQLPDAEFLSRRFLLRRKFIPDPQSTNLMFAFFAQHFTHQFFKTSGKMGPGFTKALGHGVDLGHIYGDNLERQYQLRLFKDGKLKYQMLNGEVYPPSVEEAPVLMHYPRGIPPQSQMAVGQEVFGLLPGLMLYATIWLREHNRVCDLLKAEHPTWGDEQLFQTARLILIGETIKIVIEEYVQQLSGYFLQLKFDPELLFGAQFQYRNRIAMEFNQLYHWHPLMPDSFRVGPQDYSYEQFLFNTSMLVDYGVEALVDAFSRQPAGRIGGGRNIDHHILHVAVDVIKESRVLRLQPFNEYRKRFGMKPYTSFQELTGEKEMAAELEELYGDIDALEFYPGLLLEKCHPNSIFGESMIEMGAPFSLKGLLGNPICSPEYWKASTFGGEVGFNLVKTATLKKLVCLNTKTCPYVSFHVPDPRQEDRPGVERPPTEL
Description: (§1) Inhibitory activity against COX-1 and COX-2 of the compounds produced in the Examples was measured by using COX Inhibitor Screening Assay Kit (Catalog Nos. 560101 and 560121) purchased from Cayman Chemical Company.
(§2) Before starting the measurement, reaction buffer, heme, arachidonic acid, SnCl2, EIA buffer, washing buffer, prostaglandin (PG) screening EIA standard, PG screening acetylcholine esterase (AchE), tracer (chromogenic enzyme HRP conjugate), and PC screening EIA antiserum were prepared ready for use.
(§3) The reaction mixture containing the compound of the Examples (50 μM) and COX-1 or COX-2 was allowed to stand at 37° C. or 10 minutes, and after adding 10 μl of arachidonic acid, the solution was again allowed to stand at 37° C. for 2 minutes. After the reaction, the reaction was terminated by adding 50 μl of 1N-hydrochloric acid, and 100 μl solution of SnCl2 was added, and the reaction mixture was allowed to stand at room temperature for 5 minutes.
(§4) 50 μl of antiserum (rabbit anti-PGF2α antibody) was placed in the wells of 96 well plate that had been coated with mouse anti-rabbit IgG and 50 μl of the 2000-fold diluted PGF2α-containing liquid described above and 50 μl of AchE tracer were added to the well in this order, and the mixture was allowed to stand at room temperature for 18 hours. The wells were washed 5 times with the washing buffer to remove an excessive AchE tracer, and 200 μl of Ellman reagent was added. After leaving the plate in a dark room for 60 minutes, absorbance was measured at 405 nm.
(§5) A calibration curve was obtained by using the PG screening EIA standard, and the amount of PGF2α produced was determined from the absorption. Inhibitory rate at 50 μM of the compound of the Examples against COX-1 or COX-2 was calculated.
(§6) It is to be noted that the inhibitory rate was calculated in relation to the amount of the PGF2α produced by the reaction liquid free from the compounds of the Examples, which was taken 100%.

Cyclooxygenase-2 (COX-2) = biological target: T2, Cyclooxygenase-2 (COX-2) (Homo sapiens, UniProt P35354); assay: COX Inhibitor Screening Assay Kit (Cayman), PGF2α by ELISA, COX-2; format: biochemical; settings: compound at 50 μm; relative to PGF2α produced without compound (100%)
T2 construct: purchased Cayman Chemical Company 560121
T2 sequence (P35354 18-604): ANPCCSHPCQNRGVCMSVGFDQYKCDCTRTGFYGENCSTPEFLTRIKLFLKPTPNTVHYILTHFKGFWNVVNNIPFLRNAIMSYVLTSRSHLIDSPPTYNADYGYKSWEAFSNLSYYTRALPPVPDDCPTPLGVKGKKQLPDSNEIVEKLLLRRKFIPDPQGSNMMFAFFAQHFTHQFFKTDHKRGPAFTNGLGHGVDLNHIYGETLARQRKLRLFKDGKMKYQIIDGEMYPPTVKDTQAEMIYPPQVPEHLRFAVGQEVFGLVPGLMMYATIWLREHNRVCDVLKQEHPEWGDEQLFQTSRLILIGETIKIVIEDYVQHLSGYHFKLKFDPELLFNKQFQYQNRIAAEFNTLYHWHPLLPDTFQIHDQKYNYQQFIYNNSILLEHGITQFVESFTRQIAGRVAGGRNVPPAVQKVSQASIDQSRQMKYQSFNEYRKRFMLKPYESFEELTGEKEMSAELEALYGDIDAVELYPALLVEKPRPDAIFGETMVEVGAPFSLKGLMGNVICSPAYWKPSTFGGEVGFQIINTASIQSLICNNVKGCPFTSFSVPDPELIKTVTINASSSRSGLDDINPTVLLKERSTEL
Description: as §1, §2, §3, §4, §5, §6

Row | Compound | pIC50 [1] | Inhibitory effect against COX-1 at 50 μm (% inhibition) (Cyclooxygenase-1 (COX-1)) | Inhibitory effect against COX-2 at 50 μm (% inhibition) (Cyclooxygenase-2 (COX-2))
1 | COc1ccc(-n2nc(C(=O)N(C)C)cc2-c2ccn(C)c2)cn1 [Example 116, N,N-Dimethyl-1-(6-methoxy-3-pyridyl)-5-(1-methyl-1H-pyrrol-3-yl)-1H-pyrazole-3-carboxamide] | 7.70 | – | –
2 | COc1ccc(-c2cc(C(=O)NC(C)(C)C)nn2-c2cccnc2)nc1 [Example 25, N-tert-Butyl-5-(5-methoxy-2-pyridyl)-1-(3-pyridyl)-1H-pyrazole-3-carboxamide] | 7.74 | 4.7 % inhibition | 8.2 % inhibition
3 | CC(=O)NCc1ccc(-c2cc(C(=O)NC(C)(C)C)nn2-c2cccnc2)nc1 [Example 138, N-tert-Butyl-5-[5-(acetylamino)methyl-2-pyridyl]-1-(3-pyridyl)-1H-pyrazole-3-carboxamide] | 6.80 | 0.7 % inhibition | –
4 | CC(C)(C)NC(=O)c1cc(-c2ccc(N)cn2)n(-c2cccnc2)n1 [Example 71] | 7.64 | 7.9 % inhibition | –
5 | CC(C)(C)NC(=O)c1cc(-c2ccc(CO)cn2)n(-c2cccnc2)n1 [Example 26, N-tert-Butyl-5-(5-hydroxymethyl-2-pyridyl)-1-(3-pyridyl)-1H-pyrazole-3-carboxamide] | 7.19 | 5.5 % inhibition | 8.2 % inhibition
6 | Cc1ccc(-n2nc(C(=O)NC(C)(C)C)cc2-c2ccccn2)cn1 [Example 8, N-tert-Butyl-1-(6-methyl-3-pyridyl)-5-(2-pyridyl)-1H-pyrazole-3-carboxamide] | 7.74 | −3.3 % inhibition | 3.9 % inhibition
7 | COc1cnc(-n2nc(C(=O)NC(C)(C)C)cc2-c2ccccn2)cn1 [Example 15, N-tert-Butyl-1-(5-methoxy-2-pyrazinyl)-5-(2-pyridyl)-1H-pyrazole-3-carboxamide] | 7.54 | 39.5 % inhibition | 6.9 % inhibition
8 | COCC(C)(C)NC(=O)c1cc(-c2ccccn2)n(-c2ccc(OC)nn2)n1 [Example 40, N-(2-Methoxy-1,1-dimethylethyl)-1-(6-methoxy-3-pyridazinyl)-5-(2-pyridyl)-1H-pyrazole-3-carboxamide] | 7.19 | 72 % inhibition | 14.8 % inhibition
9 | COc1ccc(-n2nc(C(=O)NC3(C(N)=O)CCCC3)cc2-c2ccccn2)cn1 [Example 48, N-(1-Carbamoyl-1-cyclopentyl)-1-(6-methoxy-3-pyridyl)-5-(2-pyridyl)-1H-pyrazole-3-carboxamide] | 6.72 | 3.6 % inhibition | 8.7 % inhibition
10 | COc1ccc(-n2nc(C(=O)NC(C)(C)C)cc2-c2cc(CO)ccn2)cn1 [Example 4, N-tert-Butyl-5-(4-hydroxymethyl-2-pyridyl)-1-(6-methoxy-3-pyridyl)-1H-pyrazole-3-carboxamide] | 6.92 | −1.5 % inhibition | −1.9 % inhibition
11 | Cc1ccc(-c2cc(C(=O)NC(C)(C)CO)nn2-c2cccnc2)nc1 [Example 152, N-(2-Hydroxy-1,1-dimethylethyl)-5-(5-methyl-2-pyridyl)-1-(3-pyridyl)-1H-pyrazole-3-carboxamide] | 6.96 | −8.7 % inhibition | –
12 | CC(C)(C)NC(=O)c1cc(-c2ccc(CNS(C)(=O)=O)cn2)n(-c2cccnc2)n1 [Example 137, N-tert-Butyl-5-[5-(methanesulfonylamino)methyl-2-pyridyl]-1-(3-pyridyl)-1H-pyrazole-3-carboxamide] | 6.64 | −5.1 % inhibition | –
13 | CC(C)(CF)NC(=O)c1cc(-c2cnc(N)cn2)n(-c2cccnc2)n1 [Example 113, N-(2-Fluoro-1,1-dimethylethyl)-5-(5-amino-2-pyrazinyl)-1-(3-pyridyl)-1H-pyrazole-3-carboxamide] | 6.82 | −2.8 % inhibition | –
14 | CC(C)(C)NC(=O)c1cc(-c2cnc(N)cn2)n(-c2cccnc2)n1 [Example 95, N-tert-Butyl-5-(5-amino-2-pyrazinyl)-1-(3-pyridyl)-1H-pyrazole-3-carboxamide] | 6.80 | −9.1 % inhibition | –
15 | CC(C)(C)NC(=O)c1cc(-c2ccc(F)cn2)n(-c2cccnc2)n1 [Example 85, N-tert-Butyl-5-(5-fluoro-2-pyridyl)-1-(3-pyridyl)-1H-pyrazole-3-carboxamide] | 7.27 | – | –
16 | CC(C)(CF)NC(=O)c1cc(-c2ccc(N)cn2)n(-c2cccnc2)n1 [Example 98, N-(2-Fluoro-1,1-dimethylethyl)-5-(5-amino-2-pyridyl)-1(3-pyridyl)-1H-pyrazole-3-carboxamide] | 7.37 | −20.4 % inhibition | –
17 | COC(=O)NCc1ccc(-c2cc(C(=O)NC(C)(C)C)nn2-c2cccnc2)nc1 [Example 139, Methyl {6-[5-(N-tert-butylcarbamoyl)-2-(3-pyridyl)-2H-pyrazol-3-yl]-3-pyridylmethyl}carbamate] | 7.15 | −25.8 % inhibition | –
18 | CC(C)(C)NC(=O)c1cc(-c2ccc(CN)cn2)n(-c2ccccc2)n1 [Example 74, N-tert-Butyl-5-(5-aminomethyl-2-pyridyl)-1-phenyl-1H-pyrazole-3-carboxamide] | 6.77 | 38.8 % inhibition | –
19 | Cc1ccc(-n2nc(C(=O)NC(C)(C)C)cc2-c2cn(C)cn2)cn1 [Example 122, N-tert-Butyl-5-(1-methyl-1H-imidazol-4-yl)-1-(6-methyl-3-pyridyl)-1H-pyrazole-3-carboxamide] | 7.00 | – | –
20 | C#Cc1ccc(-c2cc(C(=O)NC(C)(C)CF)nn2-c2cccnc2)nc1 [Example 132, 5-(5-Ethynyl-2-pyridyl)-N-(2-fluoro-1,1-dimethylethyl)-1-(3-pyridyl)-1H-pyrazole-3-carboxamide] | 7.49 | – | –
